PMC5602130, “Food and Sex-Related Impacts on the Pharmacokinetics of a Single-Dose of Ginsenoside Compound K in Healthy Subjects” (Frontiers in Pharmacology, 2017)
Marks after values point to notes of the source that are not given here.

Key:
[1] = Food-effect trial: safety assessments (adverse events, vital signs, ECG, laboratory tests); format: in vivo, human
Protocol: All available information on the study participants was included in the summaries of safety assessments, and must be recorded on the case-report form by investigators. The safety assessment took place throughout the project, and it included continuous observation of adverse events (AEs), monitoring of vital signs, 12-lead ECGs, hematological and biochemical analyses, and urinalysis. Specifically, the monitoring began the night before drug administration (at least 10 h), when subjects were admitted to the clinical facility, and continued for 96 h after dosing. ECGs were recorded prior to the administration and 1, 4, 12, 24, 48, 72, and 96 h after the administration of CK, as well as during physical examinations before and after the trial. Apart from investigators' review, data were also obtained from subjects by recounting or narrating themselves. Subsequently, AEs were classified by intensity into mild, moderate, and severe. A second classification of AEs, based on the relationship of AEs to the test drug, was performed, dividing them into positive, probable, possible, remote, or unrelated.

[2] = Food-effect trial: cumulative excretion rate from urine (0-48 h); format: in vivo, human; conditions: single oral 200 mg CK
Protocol: The food-effect trial was an open-label, randomized, two-period, two-treatment crossover trial, carried out from 15 January to 31 March 2015. Subjects (n = 24) were admitted to the clinical facility (Center of Clinical Pharmacology, the Third Xiangya Hospital, Central South University, Changsha, China) and randomized to receive a single 200 mg oral dose of Ginsenoside CK Tablets (4 × 50 mg tablets) either after a 10 h-fasting period or within 30 min after beginning the consumption of a recommended high-fat, high calorie breakfast (150 calories of protein, 250 calories of carbohydrates, 500 to 600 calories of fat; total calories approximately 800–1,000). Tablets were administered with 250 mL of water, to each subject, in each treatment period. Drinking was prohibited for 2 h before and after medication. Apart from this, the amount and time of drinking were not strictly controlled. Subjects had unified, standard meals 4 and 10 h after drug administration. The alternate treatment was conducted after a 14-day washout period. Urine samples were collected 0–24 and 24–48 h after the administration and the volumes were measured immediately after collection. We preserved 8 mL in centrifuge tube for PK assessment, which were stored at −70°C before analysis. Descriptive statistics of PK parameters were calculated using established non-compartmental methods, utilizing the WinNonLin version 6.1 software (Pharsight Corporation, USA). The PK parameters determined for each participant included apparent terminal half-life (t1/2), maximum plasma concentration (Cmax), time to Cmax (tmax), area under the plasma concentration-time curve from the time of administration up to the last time point with a measurable concentration post-dose (AUClast), AUC extrapolated to infinity (AUCinf), apparent volume of distribution (V/F), apparent plasma clearance (CL/F) after extravascular administration, mean residence time (MRTlast and MRTinf), and the cumulative excretion rate from urine. The t1/2 was estimated as (ln2)/K, where K represented the slope of the terminal phase of plasma concentration-time profile and was assessed with a weighting factor of 1, using least squares (log-linear regression of at least three data points). The Cmax and tmax were obtained from experimental observations. The values of AUC were calculated using conventional trapezoidal and log-trapezoidal methods and the extrapolated area (Rowland and Tozer, [1995]). CL/F and V/F were calculated as dose/AUCinf and (CL/F)/K, respectively. MRT was calculated as MRT = AUMC/AUC, where AUMC is the area under the first moment curve. The cumulative excretion rate was calculated as the amount of unchanged drug over a time interval in the urine divided by dose, and was expressed as a percentage. The processing of urine samples was similar to that of plasma samples. […] For QC samples containing 2.00, 50.10, or 801.60 ng·mL^−1 CK were prepared using homogenic human urine with the mean bias ranged from −5.54 to 3.56%, while the CVs ranged from 1.38 to 4.89%.

[3] = set-up: method as in Chen et al., [2014]; conditions: rats; ref Chen et al., [2014]; cited from earlier work
[4] = Early clinical trial: sex differences of ginsenoside compound K pharmacokinetics (Supplementary Table 1); conditions: human, in vivo; for Cmax: n = 12
Protocol: Therefore, a secondary purpose of this trial is to investigate whether there are any differences in the pharmacokinetics of CK between males and females, and whether the findings are consistent with what was previously observed. This report described an open-label, single-center trial, designed as a two-period crossover study, performed on healthy Chinese subjects (n = 24) randomized to either the fasting overnight (FO) or the high-fat (HF) meal group, before receiving a single 200 mg dose of Ginsenoside CK Tablets. Consequently, this study also provides evidence for dosing regimens, for late-stage clinical studies and clinical applications. Supplementary Table 1. Sex differences of ginsenoside compound K in human (n = 12).

[5] = Abnormal urine routine, possible related
[6] = Elevated creatine kinase, possible related
[7] = Elevated direct bilirubin, probable related
[8] = Elevated triglycerides, possible related
[9] = Upper respiratory tract infection, possible related

For `CC(C)=CCCC(C)(OC1OC(CO)C(O)C(O)C1O)C1CCC2(C)C1C(O)CC1C3(C)CCC(O)C(C)(C)C3CCC12C` [CK, 20-O-beta-D-glucopyranosyl-20(S)-protopanaxadiol], the “Adverse events: Number of cases” value [1, 5] was 1^c, the “Adverse events: Percentage” value [1, 5] was 4.2% and the “Adverse events: Number of cases” value ([1]; Bellyache, positive related) was 3^a. For the same molecule, the “Adverse events: Percentage” value ([1]; Bellyache, positive related) was 12.5%, the “Adverse events: Number of cases” value ([1]; Diarrhea, probable related) was 1^b and the “Adverse events: Percentage” value ([1]; Diarrhea, probable related) was 4.2%. The “Adverse events: Number of cases” value [1, 6] was 3^c, the “Adverse events: Percentage” value [1, 6] was 12.5% and the “Adverse events: Number of cases” value [1, 7] was 1^b. The “Adverse events: Percentage” value [1, 7] was 4.2%, the “Adverse events: Number of cases” value [1, 8] was 3^c and the “Adverse events: Percentage” value [1, 8] was 12.5%. For the same molecule, the “Incidence of AEs classified as positive, probable and possible in relation to the test drug” value ([1]; FO regimen) was 55.6%, the “Incidence of AEs classified as positive, probable and possible in relation to the test drug” value ([1]; HF regimen) was 44.4% and the “Adverse events: Number of cases” value ([1]; Hematuria, possible related) was 1^c. For the same molecule, the “Adverse events: Percentage” value ([1]; Hematuria, possible related) was 4.2%, the “Adverse events: Number of cases” value ([1]; Nausea, probable related) was 1^b and the “Adverse events: Percentage” value ([1]; Nausea, probable related) was 4.2%. For the same molecule, the “Adverse events: Number of cases” value [1, 9] was 1^c, the “Adverse events: Percentage” value [1, 9] was 4.2% and the “Adverse events: Percentage” value ([1]; Watery stool, positive related) was 16.7%. For the same molecule, the “Adverse events: Number of cases” value ([1]; Watery stool, positive related to ginsenoside compound K, 24 subjects) was 4^a, the “Intensity of AEs” value ([1]; all AEs) was “mild” and the “Instances of AEs recorded” value ([1]; both treatments) was 19. The “Number of subjects with AEs” value ([1]; of 24 subjects) was 11, the “Subjects with AEs (percentage)” value ([1]; of 24 subjects, both treatments) was 45.8% and the “Abnormalities in physical examination, vital signs, ECGs, or standard clinical laboratory test results” value ([1]; single 200 mg dose) was “not associated with any clinically significant abnormalities”. It also gave a Cumulative excretion rate ([2]; FO, female) of 0.083 ± 0.049%, a Cumulative excretion rate ([2]; FO, male) of 0.037 ± 0.029% and a Cumulative excretion rate ([2]; HF, all subjects) of 0.020 ± 0.015%. It also gave a Cumulative excretion rate ([2]; HF, female) of 0.019 ± 0.070%, a Cumulative excretion rate ([2]; HF, male) of 0.022 ± 0.020% and a Cumulative excretion rate ([2]; unchanged drug / dose, FO, all subjects) of 0.060 ± 0.046%. The “Dose exhibiting initial anti-inflammatory activity” value [3] was 10 mg/kg, the AUC(0-inf) ([4]; female) was 4670 ± 2140 ng·h/mL and the AUC(0-t) ([4]; female) was 4490 ± 2030 ng·h/mL. The Tmax ([4]; female) was 2.58 ± 0.67 h, the half-life ([4]; female) was 5.66 ± 2.04 h and the Cmax ([4]; Female) was 873 ± 427 ng/mL. For the same molecule, the Cmax ([4]; Male) was 601 ± 183 ng/mL, the AUC(0-inf) ([4]; male) was 3680 ± 1360 ng·h/mL and the AUC(0-t) ([4]; male) was 3600 ± 1320 ng·h/mL. The Tmax ([4]; male) was 3.19 ± 1.25 h and the half-life ([4]; male) was 4.15 ± 1.9 h.
